Test results from US11459586B2, “Methods for increasing efficiency of nuclease-mediated gene editing in stem cells” (President and Fellows of Harvard College, priority 2016, dated 2022).

System: human iPSC
Experiment: Jak2 V617F single base pair editing in hiPSC, HR and NHEJ by MiSeq
Format: cell-based
Description: FIGS. 6A-C. Bcl-2 overexpression increases the efficiency of engineering single base pair changes using ssODN donors in human iPSC. FIG. 6A. A sgRNA was designed to target exon 14 of human JAK2. The V617F mutation was encoded within 110 bp ssODN donors (in either the plus or minus orientation) or a plasmid containing 1.9 kb and 1.3 kb flanking homology arms. Small triangles indicate the primer sites for the genotyping PCR reaction outside the ssODN sequence. Plain human iPSC were transfected with 2 μg “Cas9 only sgRNA” or “Cas9 Bcl-2 sgRNA” expression plasmid and/or 10 μM ssODN or 2 μg V617F plasmid donor. 17 days later, cells were harvested for genomic DNA purification. The genomic region around exon 14 was PCR amplified and analyzed by MiSeq. FIG. 6B. […] The percent of MiSeq reads containing the Jak2 V617F mutation (HR) or indel mutations (NHEJ) is indicated together with a plot of bp position along the PCR product versus the number of sequencing reads. […]
A second round of nested PCR with PCR index primers sold under the trademark NEXTERA™ index primers (IIlumina) was used to add barcodes and remaining adaptor sequences. Both PCR reactions were supplemented with fluorescent dye sold under the trademark SYBR® Green (Invitrogen) and monitored on a quantitative PCR machine to prevent over-amplification. […]

Bcl-2: B cell lymphoma 2 protein, anti-apoptotic, overexpressed from lentivirus or Cas9 plasmid
increase of absolute recombination frequency (HR) (oligo (ssODN) donors, Bcl-2 on the Cas9 plasmid): 2-4 fold | absolute recombination frequency (HR) (plasmid donor, Bcl-2 on the Cas9 plasmid (from 25% without)): 39%
